Results reported in ChEMBL document CHEMBL1134115, “Antimycobacterial activity of 9-sulfonylated/sulfenylated-6-mercaptopurine derivatives” (Bioorg Med Chem Lett, 2001).
≈ marks a conversion by molar mass, not a printed value.

Key:
Type in all cases: functional
[1] = tested on: Mycobacterium tuberculosis; experiment: Antimycobacterial activity against Mycobacterium tuberculosis strain resistant to ethambutol (EMB)
[2] = tested on: Mycobacterium tuberculosis; experiment: Antimycobacterial activity against Mycobacterium tuberculosis strain resistant to rifampin (RMP)
[3] = tested on: Mycobacterium tuberculosis; experiment: Antimycobacterial activity against Mycobacterium tuberculosis strain resistant to ethionamide (ETA)
[4] = tested on: Mycobacterium tuberculosis; experiment: Antimycobacterial activity against Mycobacterium tuberculosis strain resistant to kanamycin (KM)
[5] = tested on: Mycobacterium tuberculosis; experiment: Antimycobacterial activity against Mycobacterium tuberculosis strain resistant to cycloserine (CS)
[6] = tested on: Mycobacterium tuberculosis; experiment: Antimycobacterial activity against Mycobacterium tuberculosis strain resistant to isoniazid (INH)
[7] = tested on: Mycobacterium tuberculosis; experiment: Antimycobacterial activity against Mycobacterium tuberculosis strain resistant to pyrazinamide (PZA)
[8] = tested on: Mycobacterium tuberculosis; experiment: Antimycobacterial activity against Mycobacterium tuberculosis strain resistant to para-aminosalicilyc acid (PAS)
[9] = tested on: Mycobacterium tuberculosis; experiment: Antimycobacterial activity against Mycobacterium tuberculosis strain resistant to thiacetazone (TAC)

Compound	MIC [1] [µg/mL]	MIC [2] [µg/mL]	MIC [3] [µg/mL]	MIC [4] [µg/mL]	MIC [5] [µg/mL]	MIC [6] [µg/mL]	MIC [7] [µg/mL]	MIC [8] [µg/mL]	MIC [9] [µg/mL]
O=S(=O)(c1ccc(Cl)cc1)n1cnc2c(S)ncnc21	6.25 (≈ 19.1 µM)	12.5 (≈ 38.3 µM)	25 (≈ 76.5 µM)	12.5 (≈ 38.3 µM)	6.25 (≈ 19.1 µM)	12.5 (≈ 38.3 µM)	12.5 (≈ 38.3 µM)	6.25 (≈ 19.1 µM)	6.25 (≈ 19.1 µM)
CN(C)S(=O)(=O)n1cnc2c(=S)[nH]cnc21	3.13 (≈ 12.1 µM)	6.25 (≈ 24.1 µM)	12.5 (≈ 48.2 µM)	6.25 (≈ 24.1 µM)	3.13 (≈ 12.1 µM)	6.25 (≈ 24.1 µM)	3.13 (≈ 12.1 µM)	3.13 (≈ 12.1 µM)	3.13 (≈ 12.1 µM)
Nc1cccc(S(=O)(=O)n2cnc3c(S)ncnc32)c1	12.5 (≈ 40.7 µM)	12.5 (≈ 40.7 µM)	50 (≈ 163 µM)	12.5 (≈ 40.7 µM)	12.5 (≈ 40.7 µM)	12.5 (≈ 40.7 µM)	12.5 (≈ 40.7 µM)	12.5 (≈ 40.7 µM)	12.5 (≈ 40.7 µM)
O=[N+]([O-])c1ccc(Sn2cnc3c(S)ncnc32)cc1	0.78 (≈ 2.55 µM)	0.78 (≈ 2.55 µM)		1.56 (≈ 5.11 µM)		6.25 (≈ 20.5 µM)			
CC(=O)Nc1ccc(S(=O)(=O)n2cnc3c(S)ncnc32)cc1	6.25 (≈ 17.9 µM)	12.5 (≈ 35.8 µM)	25 (≈ 71.6 µM)	12.5 (≈ 35.8 µM)	6.25 (≈ 17.9 µM)	12.5 (≈ 35.8 µM)	6.25 (≈ 17.9 µM)	6.25 (≈ 17.9 µM)	6.25 (≈ 17.9 µM)
CO[C@H]1/C=C/O[C@@]2(C)Oc3c(C)c(O)c4c(O)c(c(/C=N/N5CCN(C)CC5)c(O)c4c3C2=O)NC(=O)/C(C)=C\C=C\[C@H](C)[C@H](O)[C@@H](C)[C@@H](O)[C@@H](C)[C@H](OC(C)=O)[C@@H]1C [RIFAMPIN]	0.125 (≈ 0.152 µM)	> 8	0.125 (≈ 0.152 µM)	0.125 (≈ 0.152 µM)	0.125 (≈ 0.152 µM)	0.125 (≈ 0.152 µM)	0.125 (≈ 0.152 µM)	0.125 (≈ 0.152 µM)	0.125 (≈ 0.152 µM)
